Measured values taken from publication PMC8521193, “A Novel Polyphenol Oxidoreductase OhLac from Ochrobactrum sp. J10 for Lignin Degradation” (Frontiers in Microbiology, 2021).

Assays:
Assay in all cases: spectrophotometric oxidation, […] nm
Assay type in all cases: biochemical
[1] = tested on: T1, OhLac; details: pH 5.0, 30°C, Cu2+ 5.00 mM
T1 construct: full length, 837 bp ORF, 279 aa as printed, about 31 kDa; pET28a(+) NcoI/XhoI; N-terminal His6 printed (these sites would rather give a C-terminal His6); E. coli BL21(DE3), Ni-NTA; monomer

[2] = tested on: T1, OhLac; details: pH 3.0, 50°C, Cu2+ 0.25 mM
[3] = tested on: T1, OhLac; details: pH 5.0, 40°C, Cu2+ 0.50 mM

## COc1cccc(OC)c1O [2,6-DMP]
[1]
  Km: 1130 µM

## CCn1c(=NN=c2sc3cc(S(=O)(=O)O)ccc3n2CC)sc2cc(S(=O)(=O)O)ccc21 [ABTS]
[2]
  Km: 1060 µM

## COc1ccccc1O [guaiacol]
[3]
  Km: 523 ± 9.2 µM
